Active and inactive are the calls of the source. The calls are words filed in the database; no cut-off is given here.
Columns and labels:
[1] = biological target: Macrophage-stimulating protein receptor (Homo sapiens) (UniProt Q04912); test: Inhibition of Ron (unknown origin) at 1 uM in presence of ATP relative to control; values are per cent of control
[2] = biological target: Rho-associated protein kinase 1 (Homo sapiens) (UniProt Q13464); test: Inhibition of ROCK-I (unknown origin) at 1 uM in presence of ATP relative to control; values are per cent of control
[3] = biological target: Cytoplasmic tyrosine-protein kinase BMX (Homo sapiens) (UniProt P51813); test: Inhibition of Bmx (unknown origin) at 1 uM in presence of ATP relative to control
Cytoplasmic tyrosine-protein kinase BMX (Homo sapiens), sequence (P51813 whole entry): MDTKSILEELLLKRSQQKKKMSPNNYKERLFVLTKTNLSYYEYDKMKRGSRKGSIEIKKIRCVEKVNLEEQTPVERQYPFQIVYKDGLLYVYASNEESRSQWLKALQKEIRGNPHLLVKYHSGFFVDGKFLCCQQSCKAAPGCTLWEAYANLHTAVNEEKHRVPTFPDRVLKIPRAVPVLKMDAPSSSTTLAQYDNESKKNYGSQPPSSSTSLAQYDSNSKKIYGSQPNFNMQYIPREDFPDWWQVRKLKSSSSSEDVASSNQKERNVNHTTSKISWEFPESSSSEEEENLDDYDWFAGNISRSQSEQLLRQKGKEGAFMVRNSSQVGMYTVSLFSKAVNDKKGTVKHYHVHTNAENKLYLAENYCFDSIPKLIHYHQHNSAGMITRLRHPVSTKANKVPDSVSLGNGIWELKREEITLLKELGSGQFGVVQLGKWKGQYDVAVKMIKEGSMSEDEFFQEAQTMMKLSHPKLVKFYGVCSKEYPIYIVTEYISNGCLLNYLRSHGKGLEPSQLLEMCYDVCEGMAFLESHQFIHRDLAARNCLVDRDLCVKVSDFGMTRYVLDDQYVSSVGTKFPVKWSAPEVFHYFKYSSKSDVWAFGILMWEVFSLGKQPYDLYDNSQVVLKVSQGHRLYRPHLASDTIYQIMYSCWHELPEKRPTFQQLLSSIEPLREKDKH

[4] = biological target: CDK7/Cyclin H/MNAT1 (Homo sapiens) (UniProt P51946+P50613+P51948); test: Inhibition of CDK7/cyclinH/MAT1 (unknown origin) at 1 uM in presence of ATP relative to control; values are per cent of control
[5] = biological target: Inhibitor of nuclear factor kappa-B kinase subunit beta (Homo sapiens) (UniProt O14920); test: Inhibition of IKKbeta (unknown origin) at 1 uM in presence of ATP relative to control; values are per cent of control
[6] = test system: MCF7; test: Inhibition of cell proliferation in human MCF7 cells upto 10 umol/L incubated for 72 hrs by DAPI staining based analysis; assay type: functional; settings: dose <= 10.0 µmol/L
[7] = test system: A 172; test: Inhibition of cell proliferation in human A-172 cells upto 10 umol/L incubated for 72 hrs by DAPI staining based analysis; assay type: functional; settings: dose <= 10.0 µmol/L
[8] = test system: TPC1; test: Inhibition of cell proliferation in human TPC1 cells upto 10 umol/L incubated for 72 hrs by DAPI staining based analysis; assay type: functional; settings: dose <= 10.0 µmol/L
[9] = biological target: Protein kinase C eta type (Homo sapiens) (UniProt P24723); test: Inhibition of PKCeta (unknown origin) at 1 uM in presence of ATP relative to control; values are per cent of control
[10] = biological target: Ephrin type-B receptor 2 (Homo sapiens) (UniProt P29323); test: Inhibition of EphB2 (unknown origin) at 1 uM in presence of ATP relative to control; values are per cent of control
[11] = test system: Caov-3 cell line; test: Inhibition of cell proliferation in human Caov-3 cells upto 10 umol/L incubated for 72 hrs by DAPI staining based analysis; assay type: functional; settings: dose <= 10.0 µmol/L
[12] = biological target: Serine/threonine-protein kinase Chk1 (Homo sapiens) (UniProt O14757); test: Inhibition of CHK1 (unknown origin) at 1 uM in presence of ATP relative to control; values are per cent of control
[13] = biological target: Cyclin-dependent kinase 5/CDK5 activator 1 (Homo sapiens) (UniProt Q00535+Q15078); test: Inhibition of CDK5/p25 (unknown origin) at 1 uM in presence of ATP relative to control; values are per cent of control
Cyclin-dependent kinase 5/CDK5 activator 1 (Homo sapiens), sequence (Q00535 whole entry): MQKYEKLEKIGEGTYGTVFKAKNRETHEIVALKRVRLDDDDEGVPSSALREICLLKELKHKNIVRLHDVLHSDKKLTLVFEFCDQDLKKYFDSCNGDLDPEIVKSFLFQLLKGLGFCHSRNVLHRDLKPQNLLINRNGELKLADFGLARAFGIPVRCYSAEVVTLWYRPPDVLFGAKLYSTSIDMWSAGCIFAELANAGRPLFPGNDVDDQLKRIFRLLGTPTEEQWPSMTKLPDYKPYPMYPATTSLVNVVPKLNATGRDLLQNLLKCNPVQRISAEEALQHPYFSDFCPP
Cyclin-dependent kinase 5/CDK5 activator 1 (Homo sapiens), sequence (Q15078 99-307 partner limits assumed): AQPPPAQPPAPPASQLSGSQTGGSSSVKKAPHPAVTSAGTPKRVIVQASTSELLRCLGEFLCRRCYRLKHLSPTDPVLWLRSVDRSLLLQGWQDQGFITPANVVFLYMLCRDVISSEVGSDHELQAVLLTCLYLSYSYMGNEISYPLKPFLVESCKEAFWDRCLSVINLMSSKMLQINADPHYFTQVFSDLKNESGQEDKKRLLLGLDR

[14] = biological target: RAC-gamma serine/threonine-protein kinase (Homo sapiens) (UniProt Q9Y243); test: Inhibition of AKT3 (unknown origin) at 1 uM in presence of ATP relative to control; values are per cent of control
[15] = biological target: Mitogen-activated protein kinase 11 (Homo sapiens) (UniProt Q15759); test: Inhibition of p38beta (unknown origin) at 1 uM in presence of ATP relative to control; values are per cent of control
[16] = biological target: Serine/threonine-protein kinase haspin (Homo sapiens) (UniProt Q8TF76); test: Inhibition of Haspin (unknown origin) at 1 uM in presence of ATP relative to control; values are per cent of control
Serine/threonine-protein kinase haspin (Homo sapiens), sequence (Q8TF76 whole entry): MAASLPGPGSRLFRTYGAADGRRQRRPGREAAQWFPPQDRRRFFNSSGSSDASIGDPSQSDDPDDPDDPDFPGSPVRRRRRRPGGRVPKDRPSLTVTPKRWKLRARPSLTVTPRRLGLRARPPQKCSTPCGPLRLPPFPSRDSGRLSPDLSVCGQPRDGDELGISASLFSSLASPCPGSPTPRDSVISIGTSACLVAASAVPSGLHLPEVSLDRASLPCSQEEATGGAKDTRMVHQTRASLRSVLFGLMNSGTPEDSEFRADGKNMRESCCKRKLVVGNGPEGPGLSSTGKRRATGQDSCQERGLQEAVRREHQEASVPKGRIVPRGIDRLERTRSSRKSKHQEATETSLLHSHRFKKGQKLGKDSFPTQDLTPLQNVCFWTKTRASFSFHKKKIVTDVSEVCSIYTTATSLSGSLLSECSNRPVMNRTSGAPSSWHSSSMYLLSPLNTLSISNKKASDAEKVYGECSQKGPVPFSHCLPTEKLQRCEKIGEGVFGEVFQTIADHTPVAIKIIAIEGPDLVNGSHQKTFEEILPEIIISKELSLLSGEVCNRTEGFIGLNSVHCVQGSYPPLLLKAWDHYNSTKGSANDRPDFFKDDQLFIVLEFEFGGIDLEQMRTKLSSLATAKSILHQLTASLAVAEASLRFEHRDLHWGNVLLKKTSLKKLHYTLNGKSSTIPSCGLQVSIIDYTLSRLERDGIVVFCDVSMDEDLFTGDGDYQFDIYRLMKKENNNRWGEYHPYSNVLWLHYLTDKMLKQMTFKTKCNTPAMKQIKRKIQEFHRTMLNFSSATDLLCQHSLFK

[17] = test system: Detroit 562; test: Inhibition of cell proliferation in human Detroit 562 cells upto 10 umol/L incubated for 72 hrs by DAPI staining based analysis; assay type: functional; settings: dose <= 10.0 µmol/L
[18] = biological target: Serine/threonine-protein kinase Sgk2 (Homo sapiens) (UniProt Q9HBY8); test: Inhibition of SGK2 (unknown origin) at 1 uM in presence of ATP relative to control; values are per cent of control
Serine/threonine-protein kinase Sgk2 (Homo sapiens), sequence (Q9HBY8 whole entry): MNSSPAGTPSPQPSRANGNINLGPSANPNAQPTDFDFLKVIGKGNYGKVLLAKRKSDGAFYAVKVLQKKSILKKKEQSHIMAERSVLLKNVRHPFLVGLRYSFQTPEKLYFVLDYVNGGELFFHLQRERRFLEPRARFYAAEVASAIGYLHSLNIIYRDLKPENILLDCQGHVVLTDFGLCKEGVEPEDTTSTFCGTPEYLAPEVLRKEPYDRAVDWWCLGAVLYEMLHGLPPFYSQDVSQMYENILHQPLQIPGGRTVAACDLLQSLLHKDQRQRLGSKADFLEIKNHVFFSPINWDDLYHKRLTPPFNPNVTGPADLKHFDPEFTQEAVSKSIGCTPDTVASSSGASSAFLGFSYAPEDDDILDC

[19] = test system: KATO III stomach cancer cell line; test: Inhibition of cell proliferation in human KATO III stomach cancer cell line upto 10 umol/L incubated for 72 hrs by DAPI staining based analysis; assay type: functional; settings: dose <= 10.0 µmol/L
[20] = biological target: Serine/threonine-protein kinase TAO1 (Homo sapiens) (UniProt Q7L7X3); test: Inhibition of TAO1 (unknown origin) at 1 uM in presence of ATP relative to control; values are per cent of control
Serine/threonine-protein kinase TAO1 (Homo sapiens), sequence (Q7L7X3 whole entry): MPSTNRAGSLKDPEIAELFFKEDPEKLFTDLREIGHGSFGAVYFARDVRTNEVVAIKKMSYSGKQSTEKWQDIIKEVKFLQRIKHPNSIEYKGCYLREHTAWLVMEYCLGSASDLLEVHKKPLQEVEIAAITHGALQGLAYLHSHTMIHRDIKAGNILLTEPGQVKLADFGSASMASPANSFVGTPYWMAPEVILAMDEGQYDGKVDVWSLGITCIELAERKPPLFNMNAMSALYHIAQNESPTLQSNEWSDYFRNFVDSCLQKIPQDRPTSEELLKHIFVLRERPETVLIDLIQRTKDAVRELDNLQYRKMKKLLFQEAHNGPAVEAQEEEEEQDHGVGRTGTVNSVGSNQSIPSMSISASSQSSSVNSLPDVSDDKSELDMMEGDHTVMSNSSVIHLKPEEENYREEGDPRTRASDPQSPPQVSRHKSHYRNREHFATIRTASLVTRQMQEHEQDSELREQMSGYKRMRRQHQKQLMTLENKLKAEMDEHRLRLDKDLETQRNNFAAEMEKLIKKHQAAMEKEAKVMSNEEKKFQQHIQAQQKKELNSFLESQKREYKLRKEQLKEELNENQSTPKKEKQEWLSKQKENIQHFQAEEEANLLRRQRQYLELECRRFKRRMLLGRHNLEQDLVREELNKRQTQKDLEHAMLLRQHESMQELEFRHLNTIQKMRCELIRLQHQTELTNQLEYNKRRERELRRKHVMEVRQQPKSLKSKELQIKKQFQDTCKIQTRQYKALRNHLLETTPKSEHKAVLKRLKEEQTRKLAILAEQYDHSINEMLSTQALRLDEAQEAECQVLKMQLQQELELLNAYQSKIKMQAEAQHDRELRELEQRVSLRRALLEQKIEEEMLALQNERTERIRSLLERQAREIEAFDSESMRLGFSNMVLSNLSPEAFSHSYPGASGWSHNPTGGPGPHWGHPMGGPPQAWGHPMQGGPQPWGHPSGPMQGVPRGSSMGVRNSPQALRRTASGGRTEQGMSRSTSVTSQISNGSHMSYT

[21] = biological target: Serine/threonine-protein kinase 17A (Homo sapiens) (UniProt Q9UEE5); test: Inhibition of DRAK1 (unknown origin) at 1 uM in presence of ATP relative to control; values are per cent of control
[22] = biological target: Insulin-like growth factor 1 receptor (Homo sapiens) (UniProt P08069); test: Inhibition of Activated IGF-1R (unknown origin) at 1 uM in presence of ATP relative to control; values are per cent of control
[23] = biological target: Receptor-interacting serine/threonine-protein kinase 2 (Homo sapiens) (UniProt O43353); test: Inhibition of RIPK2 (unknown origin) at 1 uM in presence of ATP relative to control; values are per cent of control
[24] = test system: SK-BR-3; test: Inhibition of cell proliferation in human SK-BR-3 cells upto 10 umol/L incubated for 72 hrs by DAPI staining based analysis; assay type: functional; settings: dose <= 10.0 µmol/L
[25] = biological target: Calcium/calmodulin-dependent protein kinase type IV (Homo sapiens) (UniProt Q16566); test: Inhibition of CAMK4 (unknown origin) at 1 uM in presence of ATP relative to control; values are per cent of control
[26] = biological target: Mitogen-activated protein kinase 8 (Homo sapiens) (UniProt P45983); test: Inhibition of JNK1alpha1 (unknown origin) at 1 uM in presence of ATP relative to control; values are per cent of control
[27] = biological target: Casein kinase I isoform delta (Homo sapiens) (UniProt P48730); test: Inhibition of CK1delta (unknown origin) at 1 uM in presence of ATP relative to control; values are per cent of control
Casein kinase I isoform delta (Homo sapiens), sequence (P48730 whole entry, looked up, canonical isoform): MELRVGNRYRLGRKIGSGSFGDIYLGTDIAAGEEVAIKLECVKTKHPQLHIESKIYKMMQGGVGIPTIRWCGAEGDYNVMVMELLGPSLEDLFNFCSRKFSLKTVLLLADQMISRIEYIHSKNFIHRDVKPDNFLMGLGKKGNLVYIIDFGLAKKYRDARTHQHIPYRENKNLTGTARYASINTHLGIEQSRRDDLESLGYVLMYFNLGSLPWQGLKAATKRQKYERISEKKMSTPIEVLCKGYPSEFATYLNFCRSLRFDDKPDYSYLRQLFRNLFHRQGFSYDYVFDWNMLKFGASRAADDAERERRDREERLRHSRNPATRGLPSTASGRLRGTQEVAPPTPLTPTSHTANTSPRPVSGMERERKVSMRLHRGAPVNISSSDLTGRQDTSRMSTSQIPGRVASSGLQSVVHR

[28] = biological target: Tyrosine-protein kinase JAK3 (Homo sapiens) (UniProt P52333); test: Inhibition of JAK3 (unknown origin) at 1 uM in presence of ATP relative to control; values are per cent of control
Tyrosine-protein kinase JAK3 (Homo sapiens), sequence (P52333 whole entry): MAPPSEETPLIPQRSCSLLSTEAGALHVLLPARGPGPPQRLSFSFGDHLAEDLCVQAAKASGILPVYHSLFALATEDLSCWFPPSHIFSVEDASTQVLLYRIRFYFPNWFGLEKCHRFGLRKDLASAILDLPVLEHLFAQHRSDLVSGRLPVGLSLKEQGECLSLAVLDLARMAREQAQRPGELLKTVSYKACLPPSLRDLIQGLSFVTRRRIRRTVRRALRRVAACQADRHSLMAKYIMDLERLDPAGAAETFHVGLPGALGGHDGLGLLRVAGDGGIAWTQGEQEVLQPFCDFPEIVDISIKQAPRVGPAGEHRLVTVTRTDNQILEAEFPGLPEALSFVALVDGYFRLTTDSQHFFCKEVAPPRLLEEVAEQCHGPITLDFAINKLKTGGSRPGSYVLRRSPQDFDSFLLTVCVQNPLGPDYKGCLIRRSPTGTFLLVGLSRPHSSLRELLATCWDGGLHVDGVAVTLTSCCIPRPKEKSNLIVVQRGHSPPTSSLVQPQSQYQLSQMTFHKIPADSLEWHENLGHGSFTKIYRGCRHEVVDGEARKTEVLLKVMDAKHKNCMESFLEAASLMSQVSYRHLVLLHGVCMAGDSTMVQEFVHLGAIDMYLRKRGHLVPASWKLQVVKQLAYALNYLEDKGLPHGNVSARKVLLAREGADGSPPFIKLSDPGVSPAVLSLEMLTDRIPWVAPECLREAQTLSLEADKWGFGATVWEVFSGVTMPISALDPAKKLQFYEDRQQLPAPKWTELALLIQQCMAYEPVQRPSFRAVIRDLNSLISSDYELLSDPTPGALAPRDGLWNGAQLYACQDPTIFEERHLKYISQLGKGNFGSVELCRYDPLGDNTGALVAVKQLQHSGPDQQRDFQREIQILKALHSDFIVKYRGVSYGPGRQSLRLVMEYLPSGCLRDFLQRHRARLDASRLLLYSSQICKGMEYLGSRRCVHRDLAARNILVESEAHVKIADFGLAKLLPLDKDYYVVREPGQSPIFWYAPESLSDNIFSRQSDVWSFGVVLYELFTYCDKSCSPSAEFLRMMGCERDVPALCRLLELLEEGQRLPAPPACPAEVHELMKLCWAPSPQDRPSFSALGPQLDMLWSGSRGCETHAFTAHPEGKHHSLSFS

[29] = test system: U138-MG; test: Inhibition of cell proliferation in human U138-MG cells upto 10 umol/L incubated for 72 hrs by DAPI staining based analysis; assay type: functional; settings: dose <= 10.0 µmol/L

C[C@@H]1CCc2ncc(F)cc2[C@H]2CCCN2c2ccn3ncc(c3n2)C(=O)N1 [SELITRECTINIB]
residual activity [1]: 88.5%
residual activity [2]: 105%
inhibition [3]: 15%
residual activity [4]: 108%
residual activity [5]: 119%
inhibition [6]: inactive
inhibition [7]: inactive
inhibition [8]: inactive
residual activity [9]: 108%
residual activity [10]: 81%
inhibition [11]: inactive
residual activity [12]: 109%
residual activity [13]: 98.5%
residual activity [14]: 104%
residual activity [15]: 123%
residual activity [16]: 110%
inhibition [17]: inactive
residual activity [18]: 136%
inhibition [19]: inactive
residual activity [20]: 102%
residual activity [21]: 113%
residual activity [22]: 84.5%
residual activity [23]: 100%
inhibition [24]: inactive
residual activity [25]: 118%
residual activity [26]: 106%
residual activity [27]: 110%
residual activity [28]: 103%
inhibition [29]: inactive
